Results from EP0813871A1, “Berberine derivates for inhibiting production of HSP47” (Kureha Chemical Industry Co., Ltd., priority 1996, dated 1997).
Structures can show the parent of a compound that is named as a salt.

Legend:
[1] = test system: HSP47; assay: Inhibition of HSP47 production in heat-shocked human cancer cell lines (Western blotting); format: cell-based; conditions: Western blot, 20 µM
Description: The following various human cancer cell lines were cultured under 5% CO2, at 37 °C, except for the heat shock treatment period. The lung cancer cell line H69 (ATCC HTB 119), the stomach cancer cell line KATO III (ATCC HTB 103), the colon cancer cell line COLO 205 (ATCC CCL 222), and the prostate cancer cell line DU145 (ATCC HTB 81) were cultured in an RPMI1640 medium containing 10% inactivated FBS.
The breast cancer cell line MCF7 (ATCC HTB 22) was cultured in an RPMI1640 medium containing 10^-8 M β-estradiol and 10% inactivated FBS.
The kidney cancer cell line ACHN (ATCC CRL 1611) was cultured in an MEM medium containing 10% inactivated FBS.
The berberine hydrochloride of the formula (III) (the final concentration = 20 µM: Matsuura Yakugyo) was added to each medium of the above human cancer cell lines 2 days after the inoculation. After the berberine hydrochloride treatment for 24 hours, a heat shock was applied at 45 °C for 15 minutes, and the cells were then cultured at 37 °C overnight. The control tests were carried out by performing the above procedures except that the berberine hydrochloride was not added.
The cells treated in the above (2) were homogenized, and the amounts of HSP47 produced were measured by the Western blotting method.
The cells treated in the above (2) were washed with PBS(-), and 1 ml of lysis buffer [1.0% NP-40, 0.15 M sodium chloride, 50 mM Tris-HCl (pH 8.0), 5 mM-EDTA, 2 mM-N-ethylmaleimide, 2 mM phenylmethylsulfonyl fluoride, 2 µg/ml leupeptin, and 2 µg/ml pepstatin] was added. The whole was allowed to stand for 20 minutes on ice, and then centrifuged at 4 °C and 12000 rpm for 20 minutes. The resulting supernatant (10 µl) was added to 790 µl of PBS(-), and then 200 µl of a protein assay dye reagent solution (Dye Reagent Concentrate: Bio-Rad Laboratories, Catalogue No. 500-0006) was added. The whole was allowed to stand at room temperature for 5 minutes, and the absorbance at 595 nm was measured to determine the amounts of proteins.
For the SDS-polyacrylamide gel electrophoresis (SDS-PAGE) of the samples, the protein concentration of which were measured, aliquots containing the same amount of protein were loaded onto the gel. The SDS-PAGE was performed according to the Laemmli method. After the electrophoresis, the blotting and then blocking were carried out in accordance with the methods described in Example 1. More particularly, the gel was brought into contact with a 0.45 µm nitrocellulose membrane (Schleicher & Schuell, Catalogue No. 401196) at room temperature and 100 V, using a protein-transferring apparatus (Trans-Blot Electrophoretic Transfer Cell: Bio-Rad), and blotting was carried out for 3 hours. The blotting buffer used was same as that used in Example 1 (3). After blotting, the nitrocellulose membrane was incubated in a 10% skimmed milk-PBS(-) solution at room temperature for 30 minutes, to block non-specific bindings.
After blocking, the first antibody reaction was carried out on the nitrocellulose membrane, using a screener blotter (Sanplatec), and the anti-human-HSP47 rat polyclonal antibody prepared in Example 1. Thereafter, the nitrocellulose membrane was washed with two fresh PBS(-) solutions for 5 minutes, using a slow rocking shaker, and then with four fresh PBS(-)-0.1% Tween 20 (Bio-Rad, Catalogue No. 170-6531) solutions for 15 minutes, and finally, with two fresh PBS(-) solutions for 5 minutes.
After washing, the second antibody reaction was carried out for 2 hours, using 5 ml of a solution prepared by diluting a peroxidase-labeled goat anti-rat IgG antibody (Southern Biotechnology, Catalogue No. 3030-05) 5000-fold with a PBS(-) solution containing 2% skimmed milk. After the reaction, the nitrocellulose membrane was washed with two fresh PBS(-) solutions for 5 minutes, and with five fresh PBS(-)-0.1% Tween 20 solutions for 15 minutes, using a slow rocking shaker, and finally, with two fresh PBS(-) solutions for 5 minutes. […]

[2] = agent containing berberine as an active ingredient; cited from earlier work
[3] = test system: mice; conditions: P. acnes intraperitoneally, lipopolysaccharide intraperitoneally 7 days later; cited from earlier work

Structure (SMILES)	band of the molecular weight of approximately 47 kDa ([1]; breast cancer cell line MCF7)	band of the molecular weight of approximately 47 kDa ([1]; colon cancer cell line COLO 205)	band of the molecular weight of approximately 47 kDa ([1]; kidney cancer cell line ACHN, in comparison with the control tests)	band of the molecular weight of approximately 47 kDa ([1]; lung cancer cell line H69)	band of the molecular weight of approximately 47 kDa ([1]; prostate cancer cell line DU145)	band of the molecular weight of approximately 47 kDa ([1]; stomach cancer cell line KATO III)	anti-GEM (glomerular basement membrane) nephritis [2]	survival rate of mice [3]
COc1ccc2cc3[n+](cc2c1OC)CCc1cc2c(cc1-3)OCO2 [berberine hydrochloride]	no band of the molecular weight of approximately 47 kDa was detected	no band of the molecular weight of approximately 47 kDa was detected	faint	no band of the molecular weight of approximately 47 kDa was detected	no band of the molecular weight of approximately 47 kDa was detected	no band of the molecular weight of approximately 47 kDa was detected	–	–
COc1ccc2cc3[n+](cc2c1OC)CCc1cc2c(cc1-3)OCO2 [berberine]	–	–	–	–	–	–	effectively improved	effectively improved
